Test results from article PMC11904993, “Humanized Candida and NanoBiT Assays Expedite Discovery of Bdf1 Bromodomain Inhibitors With Antifungal Potential” (Advanced Science, 2025).
Several values for one entry are separate records, joined by “and”; a condition that tells them apart may be missing. Equal entries are not always repeated. Where two headings read alike, the source gives them in different places.

What was measured:
[1] = target: T1, Bdf1‐SmBiT/H2A.Z‐LgBiT pair (Saccharomyces cerevisiae, UniProt P35817); assay: NanoBiT assay; format: cell-based, S. cerevisiae; set-up: remaining activity: dose or concentration left out as unconfirmed
T1 construct: expressed in transfected cells; host or cells: S. cerevisiae (H2A.Z-LgBiT strain)
T1 sequence (P35817 whole entry): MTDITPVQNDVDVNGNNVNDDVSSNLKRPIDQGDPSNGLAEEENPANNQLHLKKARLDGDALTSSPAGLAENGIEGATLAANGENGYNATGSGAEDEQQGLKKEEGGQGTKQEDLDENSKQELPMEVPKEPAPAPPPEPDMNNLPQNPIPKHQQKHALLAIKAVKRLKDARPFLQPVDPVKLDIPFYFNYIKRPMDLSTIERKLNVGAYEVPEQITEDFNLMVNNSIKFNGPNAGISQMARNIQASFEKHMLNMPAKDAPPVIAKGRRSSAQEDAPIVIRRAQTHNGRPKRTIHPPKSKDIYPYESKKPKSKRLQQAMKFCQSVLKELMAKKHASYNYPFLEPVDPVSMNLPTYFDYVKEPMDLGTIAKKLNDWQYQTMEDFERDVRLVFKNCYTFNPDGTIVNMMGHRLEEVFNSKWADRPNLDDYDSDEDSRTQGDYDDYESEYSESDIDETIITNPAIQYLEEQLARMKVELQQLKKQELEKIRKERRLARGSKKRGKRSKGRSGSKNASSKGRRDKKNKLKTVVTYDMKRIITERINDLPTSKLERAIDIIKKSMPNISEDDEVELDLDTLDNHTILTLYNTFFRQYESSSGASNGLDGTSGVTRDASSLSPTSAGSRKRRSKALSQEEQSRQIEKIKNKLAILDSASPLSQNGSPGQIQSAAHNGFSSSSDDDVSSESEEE
Experimental: Yeast strains were distributed in 96‐well microplates containing SC(MSG)‐U medium (SC‐U medium with 0.1% monosodium glutamate instead of ammonium sulfate as a nitrogen source) and grown at 30 °C. 40 µL of exponentially growing cells were transferred in white 96‐well half‐area microplates (ProxiPlate Plus, Greiner Bio‐One) previously filled with 40 µL per well of SC(MSG) containing 100 µM furimazine. The microplates were then incubated for 10 min in the dark before the luminescence signals were recorded using a microplate reader (Ensight, PerkinElmer). Luminescence measurements were performed for 1 s per well at a distance of 0.1 mm between the plate and the detector. The luminescence values were normalized with the optical density (OD600) of the corresponding cultures. For NanoBiT assays with BET inhibitors, yeast cultures were grown overnight at 30 °C in SC(MSG) medium in the presence of serial dilutions of 24c and I‐BET726. Overnight cultures were diluted 5 fold in SC(MSG) and incubated for 1 h before luminescence was recorded as previously indicated. Luminescence values for each condition were normalized using the average of the luminescence recorded for the Bdf1/Swc4 and Bmh1/Bmh2 controls.

C. glabrata = assay: Growth of reference and clinical strains in liquid media; format: cell-based; conditions: for Growth (%): C. glabrata; for EC50: Nakaseomyces glabratus
Experimental: (§1) Strains were presented in Table S8 (Supporting Information). Cells from a single colony were diluted in 0.85% NaCl before being counted using a Neubauer chamber. They were diluted to a final concentration of 6500 cells mL^−1 per well for all clinical strains of C. albicans and C. glabrata; 65 000 cells mL^−1 per well for C. auris; 13 500 cells mL^−1 per well for C. parapsilosis; 3375 cells mL^−1 per well for C. krusei and 1687.5 cells mL^−1 per well for C. tropicalis, in a sterile 96‐well plate. Cells were then grown in SC medium with or without chemical compounds at 30 °C with regular shaking. The significance of growth defects was assessed using Holm‐Sidak method by GraphPad Prism 10.

C. albicans = assay: as above; format: cell-based; conditions: for EC50: Candida albicans
Experimental: as §1

## CC(=O)N1c2ccc(-c3ccc(C(=O)O)cc3)cc2C(Nc2ccc(Cl)cc2)CC1C (stereo not drawn) [I-BET726]
[1]; Bdf1-SmBiT, Htz1-LgBiT, 0.02441 mM, Fig 4C, read-out: Normalized nanoBiT signal
  remaining activity at 24.41 µM: 92%
[1]; Bdf1-SmBiT, Htz1-LgBiT, 0.09766 mM, Fig 4C, read-out: Normalized nanoBiT signal
  remaining activity at 97.66 µM: 93%
[1]; Bdf1-SmBiT, Htz1-LgBiT, 0.19531 mM, Fig 4C, read-out: Normalized nanoBiT signal
  remaining activity at 195.31 µM: 96%
[1]; Bdf1-SmBiT, Htz1-LgBiT, 0.39063 mM, Fig 4C, read-out: Normalized nanoBiT signal
  remaining activity at 390.63 µM: 92%
[1]; Bdf1-SmBiT, Htz1-LgBiT, 0.78125 mM, Fig 4C, read-out: Normalized nanoBiT signal
  remaining activity at 781.25 µM: 83%
[1]; Bdf1-SmBiT, Htz1-LgBiT, 1.56250 mM, Fig 4C, read-out: Normalized nanoBiT signal
  remaining activity at 1562.5 µM: 65%
[1]; Bdf1-SmBiT, Htz1-LgBiT, 3.12500 mM, Fig 4C, read-out: Normalized nanoBiT signal
  remaining activity at 3125 µM: 46%
[1]; Bdf1-SmBiT, Htz1-LgBiT, […], Fig 4C, read-out: Normalized nanoBiT signal
  remaining activity: 39%
[1]; mean and s.d., 4 independent experiments, read-out: IC50 (μM) (ScBdf1 / H2A.Z) NanoBiT signal
  IC50: 2.1 µM
[1]; read-out: Normalized nanoBiT signal
  remaining activity at 48.83 µM: 96%
C. glabrata; 1.5625 µM, Fig 5C
  Growth (%): 91% and 84% and 88%
C. glabrata; 3.125 µM, Fig 5C
  Growth (%): 88% and 77% and 93%
C. glabrata; 25 µM, Fig 5C
  Growth (%): 62% and 60% and 75%
C. glabrata; read-out: EC50 growth inhibition, Table S5, C. glabrata DSY565, azole-resistant, Pdr1 (L280F)
  EC50: 1.14 ± 0.62 µM
C. glabrata; read-out: EC50 growth inhibition, Table S5, C. glabrata HAB1, azole-resistant, Pdr1 (T370I)
  EC50: 1.66 ± 0.56 µM
C. glabrata; Fig 5C, read-out: EC50 (μM), C. glabrata
  EC50: 12 ± 5.6 µM
C. glabrata; Table S5, C. glabrata ATCC2001, WT, read-out: EC50 growth inhibition
  EC50: 1.52 ± 0.44 µM
C. albicans; C. albicans, 1.5625 µM, Fig 5C
  Growth (%): 81% and 83% and 74%
C. albicans; C. albicans, 3.125 µM, Fig 5C
  Growth (%): 66% and 63% and 57%
C. albicans; C. albicans, 25 µM, Fig 5C
  Growth (%): 17% and 23% and 20%
C. albicans; C. albicans, 25 µM, Fig 5E
  Growth (%): 17% and 23% and 20%
C. albicans; ATCC90028, Table S5, C. albicans ATCC90028, WT, read-out: EC50 growth inhibition
  EC50: 4.25 ± 0.47 µM
C. albicans; Fig 5C, read-out: EC50 (μM), C. albicans
  EC50: 4.3 ± 0.5 µM
C. albicans; Table S5, C. albicans CagR, echinocandin-resistant, not characterized, read-out: EC50 growth inhibition
  EC50: 4.14 ± 0.48 µM
C. albicans; all eight azole- and echinocandin-resistant C. albicans clinical isolates, read-out: EC50 growth inhibition
  EC50: 5 to 10 µM
C. albicans; read-out: EC50 growth inhibition, Table S5, C. albicans AF1, echinocandin-resistant, Fks1-HS1 (S645P)
  EC50: 7.13 ± 1.48 µM
C. albicans; read-out: EC50 growth inhibition, Table S5, C. albicans AF2, echinocandin-resistant, Fks1-HS1 (S645P)
  EC50: 4.59 ± 0.95 µM
C. albicans; read-out: EC50 growth inhibition, Table S5, C. albicans AF3, echinocandin-resistant, Fks1-HS1 (S645P)
  EC50: 6.83 ± 0.26 µM
C. albicans; read-out: EC50 growth inhibition, Table S5, C. albicans CAAL74, fluconazole-resistant, Erg11 (Y132F, E266D, G448V, V488I)
  EC50: 5.87 ± 1.03 µM
C. albicans; read-out: EC50 growth inhibition, Table S5, C. albicans DSY292, azole-resistant, Erg11 (Y132H, G464S, R467K)
  EC50: 3.07 ± 0.26 µM
C. albicans; read-out: EC50 growth inhibition, Table S5, C. albicans DSY296, azole-resistant, Erg11 (G129A, G464S, G450E), Tac1 (N977D)
  EC50: 7.36 ± 0.76 µM
C. albicans; read-out: EC50 growth inhibition, Table S5, C. albicans DSY2323, azole-resistant, Erg11 (S405F), Tac1 (G980E)
  EC50: 11.5 ± 1.7 µM
C. albicans; strain AF1, 25 µM, Fig 5E
  Growth (%): 34% and 31% and 28%
C. albicans; strain AF2, 25 µM, Fig 5E
  Growth (%): 26% and 28% and 29%
C. albicans; strain AF3, 25 µM, Fig 5E
  Growth (%): 26% and 25% and 28%
C. albicans; strain CAAL74, 3.13 µM, Fig 5D
  Growth (%): 67% and 74% and 60%
C. albicans; strain CagR, 25 µM, Fig 5E
  Growth (%): 18% and 12%
C. albicans; strain DSY292, 0.78 µM, Fig 5D
  Growth (%): 84% and 81% and 86%
C. albicans; strain DSY292, 3.13 µM, Fig 5D
  Growth (%): 55% and 51%
C. albicans; strain DSY296, 0.78 µM, Fig 5D
  Growth (%): 97% and 88% and 92%
C. albicans; strain DSY296, 3.13 µM, Fig 5D
  Growth (%): 71% and 66% and 72%
C. albicans; strain DSY2323, 3.13 µM, Fig 5D
  Growth (%): 85% and 88% and 76%
